Source: PMC6199744, “Development of Chemical Proteomics for the Folateome and Analysis of the Kinetoplastid Folateome” (ACS Infectious Diseases, 2018)

Test system: L. major lysate proteins
Experiment: Multitargeted bead mixture chemoproteomics, single concentration competition, proteome-wide
Type: binding
Settings: for fold change: vehicle control = 1

## NCCCNc1ccc(C(=O)NC(CCC(=O)O)C(=O)O)cc1 (stereo not drawn) [compound 7]
Protein LMJF.15.0040 HYPOTHETICAL PROTEIN, CONSERVED (Possible lysine decarboxylase, putative)
  fold change: 0.73
Protein LMJF.15.0690 HY[…], CONSERVED
  fold change vs vehicle control: 1.02
Protein LMJF.15.1010 GLUTAMATE DEHYDROGENASE
  fold change: 1.04
Protein LMJF.15.1190 HY[…], CONSERVED (cyclic nucleotide-binding domain containing protein, putative)
  fold change: 1.08
Protein LMJF.16.0520 HY[…], CONSERVED
  fold change vs vehicle control: 1.02
Protein LMJF.16.0540 ASPARTATE CARBAMOYLTRANSFERASE, PUTATIVE
  fold change vs vehicle control: 0.99
Protein LMJF.16.0760, TRANSALDOLASE, PUTATIVE
  fold change relative to vehicle control: 0.99
Protein LMJF.16.0940 DYNEIN LIGHT CHAIN, PUTATIVE
  fold change vs vehicle control: 1.11
Protein LMJF.16.1180, COATOMER DELTA SUBUNIT-LIKE PROTEIN
  fold change relative to vehicle control: 1.2
Protein LMJF.16.1320, […], PUTATIVE
  fold change relative to vehicle control: 1.34
Protein LMJF.16.1420, HY[…], CONSERVED
  fold change relative to vehicle control: 1.05
Protein LMJF.17.0081, […] 1-ALPHA
  fold change relative to vehicle control: 1.09
Protein LMJF.18.0270, GLYCOGEN SYNTHASE KINASE, PUTATIVE
  fold change relative to vehicle control: 0.98
Protein LMJF.18.0580 P[…]-COA HYDRATASE, PUTATIVE
  fold change: 1.04
Protein LMJF.18.0680, CITRATE SYNTHASE, PUTATIVE
  fold change relative to vehicle control: 1.06
Protein LMJF.18.1010 DYNEIN LIGHT CHAIN 2B, CYTOPLASMIC, PUTATIVE
  fold change vs vehicle control: 1.15
Protein LMJF.18.1210 PROLYL-TRNA SYNTHETASE, PUTATIVE,BI[…]-TRNA SYNTHETASE, PUTATIVE
  fold change vs vehicle control: 1.03
Protein LMJF.18.1370 HEAT SHOCK PROTEIN, PUTATIVE
  fold change vs vehicle control: 1.14
Protein LMJF.19.0200 ADP,ATP CARRIER PROTEIN 1, MIT[…], PUTATIVE
  fold change: 1.08
Protein LMJF.19.1120 […]-ATP-ASE SUBUNIT, PUTATIVE
  fold change vs vehicle control: 1.07
Protein LMJF.19.1160 HYPOTHETICAL PROTEIN, CONSERVED
  fold change vs vehicle control: 0.99
Protein LMJF.19.1560 INOSINE-5'-MONOPHOSPHATE DEHYDROGENASE
  fold change vs vehicle control: 0.97
Protein LMJF.19.1620, POTASSIUM VOLTAGE-GATED CHANNEL, PUTATIVE
  fold change relative to vehicle control: 1.12
Protein LMJF.20.1280 SMALL MYRISTOYLATED PROTEIN 4, PUTATIVE
  fold change vs vehicle control: 0.92
Protein LMJF.21.0810 METHIONYL-TRNA SYNTHETASE, PUTATIVE
  fold change: 0.87
Protein LMJF.21.1450 ARGININE N-METHYLTRANSFERASE, TYPE II, PUTATIVE
  fold change: 1.06
Protein LMJF.21.1830 […] 5 SUBUNIT, PUTATIVE,20S […] ALPHA 5, (PUTATIVE)
  fold change vs vehicle control: 1.01
Protein LMJF.22.0230 AMINO ACID PERMEASE, PUTATIVE
  fold change: 1.14
Protein LMJF.22.0570 […] SUBUNIT 1, PUTATIVE
  fold change vs vehicle control: 1.04
Protein LMJF.22.0730 HYPOTHETICAL PROTEIN, CONSERVED
  fold change vs vehicle control: 0.96
Protein LMJF.22.0770 NADH-CYTOCHROME B5 REDUCTASE, PUTATIVE
  fold change: 0.85
Protein LMJF.23.0020, HYPOTHETICAL PROTEIN, CONSERVED
  fold change relative to vehicle control: 1.99
Protein LMJF.23.0040, PEROXIDOXIN
  fold change relative to vehicle control: 0.99
Protein LMJF.23.0080, HYPOTHETICAL PROTEIN, CONSERVED
  fold change relative to vehicle control: 0.99
Protein LMJF.23.0210 ATP-BINDING CASSETTE PROTEIN SUBFAMILY C, MEMBER 1, PUTATIVE
  fold change: 1.03
Protein LMJF.23.0370 CYTOCHROME C OXIDASE SUBUNIT 10, PUTATIVE
  fold change: 0.97
Protein LMJF.23.0540, ACETYL-COA SYNTHETASE, PUTATIVE
  fold change relative to vehicle control: 1.01
Protein LMJF.23.0560 KINESIN, PUTATIVE
  fold change vs vehicle control: 0.91
Protein LMJF.23.1410 HY[…], CONSERVED
  fold change vs vehicle control: 1.12
Protein LMJF.24.0070, HY[…], CONSERVED
  fold change relative to vehicle control: 1.03
Protein LMJF.24.0140 ANKYRIN/TPR REPEAT PROTEIN
  fold change: 0.93
Protein LMJF.24.0400 HYPOTHETICAL PROTEIN, CONSERVED (TPR repeat, putative)
  fold change: 0.96
Protein LMJF.24.1510, IGE-DEPENDENT HISTAMINE-RELEASING FACTOR, PUTATIVE
  fold change relative to vehicle control: 0.85
Protein LMJF.24.1630, SUCCINATE DEHYDROGENASE FLAVOPROTEIN, PUTATIVE
  fold change relative to vehicle control: 1
Protein LMJF.24.2060, TRANSKETOLASE
  fold change relative to vehicle control: 1.02
Protein LMJF.25.0010, BETA […] TRANSFERASE
  fold change relative to vehicle control: 1.21
Protein LMJF.25.0910, CYCLOPHILIN A
  fold change relative to vehicle control: 0.9
Protein LMJF.25.1130 […] OXIDASE VII, PUTATIVE
  fold change vs vehicle control: 1.09
Protein LMJF.25.1180, ATPASE BETA SUBUNIT, PUTATIVE
  fold change relative to vehicle control: 1.06
Protein LMJF.25.1610 HY[…], CONSERVED
  fold change vs vehicle control: 1.08
Protein LMJF.25.1620 HYPOTHETICAL PROTEIN, CONSERVED
  fold change vs vehicle control: 0.99
Protein LMJF.25.2340 SERINE/THREONINE-PROTEIN KINASE, PUTATIVE,PROTEIN KINASE, PUTATIVE
  fold change: 0.83
Protein LMJF.26.0630, HY[…], CONSERVED
  fold change relative to vehicle control: 1.11
Protein LMJF.26.1240 HEAT SHOCK PROTEIN 70-RELATED PROTEIN
  fold change vs vehicle control: 1.06
Protein LMJF.26.1710 […] OXIDASE SUBUNIT V, PUTATIVE
  fold change: 1.03
Protein LMJF.26.2480 CDP-DIACYLGLYCEROL--INOSITOL 3-[…], PUTATIVE
  fold change vs vehicle control: 1.06
Protein LMJF.26.2560 HYPOTHETICAL PROTEIN, CONSERVED
  fold change vs vehicle control: 0.94
Protein LMJF.27.0190 PROTEASOME ALPHA 7 SUBUNIT, PUTATIVE
  fold change vs vehicle control: 0.97
Protein LMJF.27.0650 HY[…], CONSERVED
  fold change: 1.07
Protein LMJF.27.0700 HYPOTHETICAL PROTEIN, CONSERVED
  fold change: 1.67
Protein LMJF.27.0760 GTP-binding protein homologue
  fold change vs vehicle control: 0.78
Protein LMJF.27.1060 CYSTEINE DESULFURASE, PUTATIVE
  fold change vs vehicle control: 0.93
Protein LMJF.27.1110 MIT[…] BINDING PROTEIN 1,GBP21, MRP1
  fold change vs vehicle control: 1.07
Protein LMJF.27.1250 HYPOTHETICAL PROTEIN, CONSERVED (Serine-threonine kinase receptor-associated protein, putative)
  fold change: 0.97
Protein LMJF.27.1390, 60S ACIDIC RIBOSOMAL SUBUNIT PROTEIN, PUTATIVE
  fold change relative to vehicle control: 1.05
Protein LMJF.27.1460 PROTEASOME REGULATORY NON-ATP-ASE SUBUNIT 3, PUTATIVE
  fold change: 0.87
